Measurements taken from patent US11352604B2, “Method of making cardiomyocytes from human pluripotent cells” (Wisconsin Alumni Research Foundation, priority 2016, dated 2022).

Columns and labels:
[1] = test system: day 5 cardiac progenitors; assay: RNA-seq differential gene expression, day 5 pI:C-primed vs untreated cardiac progenitors; type: cell-based, human
Method: (§1) Day-5 cells from d3-5 untreated, TGFβ-treated, and pI:C-treated progenitors from the 19-9-11 iPS cell line were separately prepared as above for cell dissociation of progenitors from three different wells of each condition (for 9 total sequencing samples) and isolated as described above for RNA for RT-qPCR. rRNA-reduced Illumina TruSeq™ Stranded total RNA libraries were prepared and 1×100 bp single end sequencing was performed. To map and annotate RNA-seg data, STAR and HTSeq were used, respectively (Anders et al., 2015; Dobin and Gingeras, 2015). Annotated transcript counts were further processed with DeSEq2 for differential gene expression analysis (Love et al., 2014). Gene neighborhood analysis was performed with NEST (Jiang et al., 2015).

[2] = test system: day 5 cardiac progenitors; assay: Gene ontology / KEGG pathway analysis of pI:C up- and downregulated RNA-seq genes; type: cell-based, human; settings: pI:C top upregulated GO terms
Method: as §1

[3] = day 5 progenitors, out of ~10,500 genes detected
[4] = KEGG_PATHWAY hsa03030:DNA replication
[5] = KEGG_PATHWAY hsa03430:Mismatch repair
[6] = KEGG_PATHWAY hsa03460:Fanconi anemia pathway
[7] = KEGG_PATHWAY hsa04110:Cell cycle
[8] = KEGG_PATHWAY hsa05034:Alcoholism
[9] = KEGG_PATHWAY hsa05203:Viral carcinogenesis
[10] = KEGG_PATHWAY hsa05322:Systemic lupus erythematosus

## polyinosinic-polycytidylic acid [pI:C]
[1]; [3]
  number of genes significantly downregulated: 912 genes
  number of genes significantly upregulated: 514 genes
[1]; gene ACTN3
  log2FoldChange: 0.6193
[1]; gene ADAMTS18
  log2FoldChange: −1.365
[1]; gene ADCY5
  log2FoldChange: 0.9552
[1]; gene ADCY8
  log2FoldChange: 0.6342
[1]; gene ALDH1A2
  log2FoldChange: 1.067
[1]; gene ANKRD18A
  log2FoldChange: 1.148
[1]; gene AQP3
  log2FoldChange: 0.8778
[1]; gene ARL15
  log2FoldChange: 0.6459
[1]; gene ARSI
  log2FoldChange: 0.6043
[1]; gene ATP8B4
  log2FoldChange: −1.545
[1]; gene BAI2
  log2FoldChange: 0.6046
[1]; gene C20orf103
  log2FoldChange: 0.9674
[1]; gene CD82
  log2FoldChange: 1.288
[1]; gene CDC25B
  log2FoldChange: 0.6173
[1]; gene CHRNA3
  log2FoldChange: 0.6865
[1]; gene CHRNB4
  log2FoldChange: 0.6085
[1]; gene CNTFR
  log2FoldChange: 0.8038
[1]; gene COL2A1
  log2FoldChange: 0.9666
[1]; gene COL19A1
  log2FoldChange: −0.827
[1]; gene CRNDE
  log2FoldChange: 0.7347
[1]; gene CTNNA2
  log2FoldChange: 0.8199
[1]; gene DKFZp686D0853
  log2FoldChange: 0.782
[1]; gene DKK1
  log2FoldChange: 0.8084
[1]; gene DLL3
  log2FoldChange: 0.7285
[1]; gene DPYSL5
  log2FoldChange: 0.6254
[1]; gene DUSP4
  log2FoldChange: −1.302
[1]; gene EPHB3
  log2FoldChange: 0.6122
[1]; gene ERBB4
  log2FoldChange: −0.836
[1]; gene EYA1
  log2FoldChange: 0.927
[1]; gene FAM98B
  log2FoldChange: 1.008
[1]; gene FHDC1
  log2FoldChange: 0.6831
[1]; gene FOXC1
  log2FoldChange: 0.9077
[1]; gene FOXC2
  log2FoldChange: 0.8203
[1]; gene FOXL1
  log2FoldChange: 1.223
[1]; gene GJA4
  log2FoldChange: −0.828
[1]; gene GPC3
  log2FoldChange: 0.6647
[1]; gene GPR55
  log2FoldChange: −1.691
[1]; gene HAND1
  log2FoldChange: −1.326
[1]; gene HAPLN3
  log2FoldChange: 0.8468
[1]; gene HEY1
  log2FoldChange: 0.6706
[1]; gene HLA-DQA2
  log2FoldChange: 0.881
[1]; gene IFI16
  log2FoldChange: 1.021
[1]; gene IP6K3
  log2FoldChange: 0.6953
[1]; gene IRX3
  log2FoldChange: 0.7452
[1]; gene IRX5
  log2FoldChange: 0.9174
[1]; gene JAG1
  log2FoldChange: 1.453
[1]; gene KCNH7
  log2FoldChange: 0.8627
[1]; gene KCNJ16
  log2FoldChange: −1.26
[1]; gene KIAA0319
  log2FoldChange: 0.6142
[1]; gene KIAA1324
  log2FoldChange: 0.914
[1]; gene LIX1
  log2FoldChange: 0.6361
[1]; gene MMP16
  log2FoldChange: 0.9772
[1]; gene MN1
  log2FoldChange: 0.8939
[1]; gene MT1X
  log2FoldChange: 0.7867
[1]; gene MXRA5
  log2FoldChange: −1.313
[1]; gene MYO7A
  log2FoldChange: 0.815
[1]; gene NEFL
  log2FoldChange: 0.6647
[1]; gene NELL2
  log2FoldChange: 0.6696
[1]; gene NETO1
  log2FoldChange: 0.918
[1]; gene NFKBIZ
  log2FoldChange: 0.7246
[1]; gene NKX3-1
  log2FoldChange: 0.9735
[1]; gene NPY
  log2FoldChange: 1.254
[1]; gene NR2F1
  log2FoldChange: 0.7356
[1]; gene NRCAM
  log2FoldChange: −1.533
[1]; gene NRXN1
  log2FoldChange: 0.724
[1]; gene PANX2
  log2FoldChange: 1.107
[1]; gene PAPPA
  log2FoldChange: 0.9808
[1]; gene PDE1B
  log2FoldChange: 0.9995
[1]; gene PDGFD
  log2FoldChange: 0.6619
[1]; gene PPFIA2
  log2FoldChange: 0.8189
[1]; gene PPFIBP2
  log2FoldChange: −0.835
[1]; gene PPM1J
  log2FoldChange: 0.6364
[1]; gene PPP1R1A
  log2FoldChange: 1.171
[1]; gene PRSS12
  log2FoldChange: 0.817
[1]; gene PRSS23
  log2FoldChange: 0.9765
[1]; gene PTN
  log2FoldChange: 0.7536
[1]; gene PTPN12
  log2FoldChange: 0.7631
[1]; gene RARB
  log2FoldChange: 0.9291
[1]; gene RASSF10
  log2FoldChange: −1.321
[1]; gene RERG
  log2FoldChange: 0.6913
[1]; gene RHBDL3
  log2FoldChange: 0.7861
[1]; gene RND3
  log2FoldChange: 0.6053
[1]; gene ROBO3
  log2FoldChange: 0.6174
[1]; gene SCGB1A1
  log2FoldChange: 0.7028
[1]; gene SIX1
  log2FoldChange: 1.397
[1]; gene SLC24A3
  log2FoldChange: 0.7397
[1]; gene SLC28A2
  log2FoldChange: −1.472
[1]; gene SPOCK3
  log2FoldChange: 0.6961
[1]; gene STAR
  log2FoldChange: 0.7806
[1]; gene SYT4
  log2FoldChange: 0.9363
[1]; gene SYT6
  log2FoldChange: 0.6752
[1]; gene TBX3
  log2FoldChange: −1.289
[1]; gene TMEM132E
  log2FoldChange: 0.6361
[1]; gene TMOD1
  log2FoldChange: −1.407
[1]; gene TMPRSS13
  log2FoldChange: 0.6086
[1]; gene TOX
  log2FoldChange: 0.6437
[1]; gene TRPA1
  log2FoldChange: −1.599
[1]; gene TXNIP
  log2FoldChange: 0.805
[1]; gene USP27X
  log2FoldChange: 0.6946
[1]; gene VEPH1
  log2FoldChange: −1.26
[2]; [4]
  % (genes in term): 2.3989%
  Count (upregulated genes in term): 18
[2]; [5]
  % (genes in term): 1.0662%
  Count (upregulated genes in term): 8
[2]; [6]
  % (genes in term): 1.3327%
  Count (upregulated genes in term): 10
[2]; [7]
  % (genes in term): 1.9991%
  Count (upregulated genes in term): 15
[2]; [8]
  % (genes in term): 4.6645%
  Count (upregulated genes in term): 35
[2]; [9]
  % (genes in term): 3.1985%
  Count (upregulated genes in term): 24
[2]; KEGG_PATHWAY hsa05218:Melanoma
  % (genes in term): 1.3327%
  Count (upregulated genes in term): 10
[2]; [10]
  % (genes in term): 4.7978%
  Count (upregulated genes in term): 36
